Measured values published in patent US20030109418A1, “Methods for identifying compounds for inhibition of neoplastic lesions, and pharmaceutical compositions containing such compounds” (priority 1999, published 2003).
Where a name gives a salt, the structure may show the parent alone.

How the values were obtained:
UACC375, Melanoma = assay: Growth inhibition, SRB assay, UACC375; assay type: cell-based; conditions: Homo sapiens, UACC-375
Text: A compound's ability to inhibit tumor cell growth can be measured using the HT-29 human colon carcinoma cell line obtained from ATCC. HT-29 cells have previously been characterized as a relevant colon tumor cell culture model (Fogh, J., and Trempe, G. In: Human Tumor Cells in Vitro, J. Fogh (eds.), Plenum Press, New York, pp. 115-159, 1975). HT-29 cells are maintained in RPMI media supplemented with 5% fetal bovine calf serum (Gemini Bioproducts, Inc., Carlsbad, Calif.) and 2 mm glutamine, and 1% antibiotic-antimycotic in a humidified atmosphere of 95% air and 5% CO2 at 37° C. Briefly, HT-29 cells are plated at a density of 500 cells/well in 96 well microtiter plates and incubated for 24 hours at 37° C. prior to the addition of compound. […] After six days in culture, the cells are fixed by the addition of cold trichloroacetic acid to a final concentration of 10% and protein levels are measured using the sulforhodamine B (SRB) colorimetric protein stain assay as previously described by Skehan, P., Storeng, R., Scudiero, D., Monks, A., McMahon, J., Vistica, D., Warren, J. T., Bokesch, H., Kenney, S., and Boyd, M. R., “New Colorimetric Assay For Anticancer-Drug Screening,” J. Natl. Cancer Inst. […]
To show the effectiveness of this screening method on various forms of neoplasia, compounds were tested on numerous cell lines. […] The IC50 values were determined by the SRB assay. […]

[1] = biological target: T1, cGMP binding sites of the GST-cGB-PDE5 protein (Homo sapiens, UniProt O76074); assay: cGMP binding assay with GST-cGB-PDE5 fusion protein; conditions: 3H-cGMP 2 μM
T1 construct: made in house; host or cells: E. coli BL21 (DE3)

[2] = tested on: PrEC primary prostate epithelial cell cultures; assay: Histone-associated DNA fragmentation in normal prostate epithelial cells; assay type: cell-based; conditions: 50 μM, up to 4 days
Procedure: The androgen-sensitive prostate tumor cell line, LNCaP (from ATCC (Rockville, Md.)) was propogated under standard conditions using […] medium containing 5% fetal calve serum and 2 mM glutamine. Primary prostate epithelial cell cultures (PrEC) derived from normal prostate (from Clonetics Inc. (San Diego, Calif.)) were grown under the same conditions as the tumor cell line except a serum-free medium optimized for the growth of such cultures was used (Clonetics Inc). For the experiments, LNCaP or PrEC cells were seeded in 96 well plates at a density of 10,000 cells per well. After 24 hours, the cells were treated with either vehicle (0.1% DMSO) or 50 μM Compound I (free base) solubilized in DMSO. After various drug treatment times (4, 24, 48, 72, or 99 hours) the cells were lysed and processed for measurement of histone-associated DNA as an indicator of apoptotic cell death (see, Piazza et al., Cancer Research 57: 2452-2459, 1997).
This is in marked contrast to conventional chemotherapeutics that induce apoptosis or necrosis in rapidly growing normal and neoplastic cells alike.

HCT-15 = assay: Growth inhibition, neutral red assay, HCT-15; assay type: cell-based, human; conditions: free base, five days
Procedure: (§1) Compound I's activity is not confined to activity against colon cancer cell lines or animal models of colon cancer. It has a broad range of anti-neoplastic effects in various neoplastic cell lines. Various types of human cancer cell lines were propagated under sterile conditions in RPMI 1640 medium with 10% fetal bovine serum, 2 mM L-glutamine and sodium bicarbonate. To determine growth inhibitory effects of Compound I, cells were seeded in 96-well plates at a density of 1000 cells per well. Twenty-four hours after plating, the cells were dosed with various concentrations of the free base of Compound I solubilized in DMSO (final concentration 0.1%). The effect of the drug on tumor cell growth was determined using the neutral red cytotoxicity assay following five days of continuous treatment. Neutral red is a dye that is selectively taken up by viable cells by an ATP-dependent transport mechanism.

SW-620 = assay: Growth inhibition, neutral red assay, SW-620; assay type: cell-based, human; conditions: free base, five days
Procedure: as §1

NCI-H460 = assay: Growth inhibition, neutral red assay, NCI-H460; assay type: cell-based, human; conditions: free base, five days
Procedure: as §1

NCI-H82 = assay: Growth inhibition, neutral red assay, NCI-H82; assay type: cell-based, human; conditions: free base, five days
Procedure: as §1

Molt-4 = assay: Growth inhibition, neutral red assay, Molt-4; assay type: cell-based; conditions: Homo sapiens, HCl salt
Procedure: as §1

T1 sequence (O76074 46-539 limits assumed): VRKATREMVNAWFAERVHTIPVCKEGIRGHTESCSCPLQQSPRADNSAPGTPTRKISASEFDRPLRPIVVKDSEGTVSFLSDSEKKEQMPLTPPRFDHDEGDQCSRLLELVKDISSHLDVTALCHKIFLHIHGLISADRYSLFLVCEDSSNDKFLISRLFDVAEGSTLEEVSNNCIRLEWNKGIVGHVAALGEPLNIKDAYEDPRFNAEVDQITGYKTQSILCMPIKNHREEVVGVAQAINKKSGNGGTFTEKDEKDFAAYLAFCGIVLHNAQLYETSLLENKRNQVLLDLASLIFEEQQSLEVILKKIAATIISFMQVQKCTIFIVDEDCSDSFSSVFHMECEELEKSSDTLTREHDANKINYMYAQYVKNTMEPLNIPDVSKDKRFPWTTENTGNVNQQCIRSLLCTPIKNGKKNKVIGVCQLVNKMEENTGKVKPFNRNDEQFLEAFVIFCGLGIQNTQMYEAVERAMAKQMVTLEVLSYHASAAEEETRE

| Compound | IC50 (UACC375, Melanoma) [µM] | competition with cGMP in binding of GST-cGB-PDE5 [1] | DNA fragmentation in PrEC (normal prostate) cells [2] | GI50 (HCT-15; Homo sapiens, HCT-15, 120 h) [µM] | GI90 μM, HCT-15 (HCT-15) [µM] | GI50 (SW-620; Homo sapiens, SW-620, 120 h) [µM] | GI90 μM, SW-620 (SW-620) [µM] | GI50 (NCI-H460; Homo sapiens, NCI-H460, 120 h) [µM] | GI90 μM, NCI-H460 (NCI-H460) [µM] | GI50 (NCI-H82; Homo sapiens, NCI-H82, 120 h) [µM] | GI90 μM, NCI-H82 (NCI-H82) [µM] | GI50 (Molt-4) [µM] |
| --- | --- | --- | --- | --- | --- | --- | --- | --- | --- | --- | --- | --- |
| CC1=C(CC(=O)O)c2cc(F)ccc2/C1=C\c1ccc(S(C)(=O)=O)cc1 [Exisulind, 5-fluoro-2-methyl-1-(p-methylsulfonylbenzylidene)-3-indenylacetic acid] | 100 | do not bind to the cGMP binding sites of PDE5 | – | – | – | – | – | – | – | – | – | – |
| CC1=C(CC(=O)NCc2ccccc2)c2cc(F)ccc2/C1=C\c1ccncc1 [Compound I, (Z)-5-fluoro-2-methyl-(4-pyridylidene)-3-(N-benzyl)indenylacetamide hydrochloride] | – | – | did not affect DNA fragmentation | 1.7 | 3.0 | 1.7 | 2.5 | 1.9 | 30.0 | 1.7 | 5.8 | 1.6 |
